Reference: patent publication US5157123A, “S-(2-thiopyridyl)-L-cysteine, a heterobifunctional crosslinking reagent” (priority 1989, dated 1992)
Where a name gives a salt, the structure may show the parent alone.

How the values were obtained:
[1] = Water solubility of crosslinkers; format: physicochemical; settings: distilled water
[2] = tested on: human monoclonal IgM antibody 1688; experiment: Incorporation of TPCH versus TPMPH into IgM antibody 1688 (periodate oxidation, pyridine-2-thione release at 343 nm); settings: identical coupling conditions, FIG. 2
Description: Human IgM (2.5 mg) in 0.1M sodium acetate, pH 5.5 (1 mg IgM/ml) was oxidized in the presence of 10.7 mg (50 μmoles) NaIO4 and 7 mg (19.8 μmoles) of TPCH. After 20 minutes at 0° C. the reaction mixture was chromatographed on a Sephadex G-25 column to remove access NaIO4 and uncoupled TPCH. The derivatized IgM molecules were eluted with 0.1M sodium phosphate, 0.1M sodium chloride, pH 7.5, and stored at 4° C. The extent of modification was determined to be 17 TPCH molecules per IgM by monitoring the release of pyridine-2-thione at 343 nm during incubation of the derivatized antibody in the presence of 10 mM dithiothreitol as described in J. Carlsson, H. Drevin, and R. Axen, Biochem. J., vol. […]
Human IgM (2.5 mg) was oxidized in 1.25 ml of 0.1M sodium acetate, pH 5.5, in the presence of 5.3 mg sodium periodate with either 6.9 mg (20 μmoles) of TPCH trihydrochloride (M.W.=353.5 daltons) or 4.4 mg (20 μmoles) of TPMPH (M.W.=229.3 daltons) at 0° C. […] The derivatized IgM molecules were eluted with 0.1M sodium phosphate, 0.1 M sodium chloride, pH 7.5 The extent of modification was determined as described above.
Human IgM (2.5 mg) was oxidized in the presence of 0.27 mg sodium periodate under identical conditions as described above. The extent of derivatization was determined after 20 minutes of incubation using the procedure described above.

NNC(=O)[C@@H](N)CSSc1ccccn1 [TPCH, S-(2-Thiopyridyl)-L-Cysteine Hydrazide Trihydrochloride]
water solubility (concentration to which it can be easily dissolved) [1]: ≥ 1000 mM

NNC(=O)CCSSc1ccccn1 [TPMPH, S-(2-thiopyridyl)-mercaptopropionic acid hydrazide]
increase in time required for incorporation of comparable amounts of crosslinker per antibody, versus TPCH [2]: ~3 fold | maximum solubility [1]: 150 mM
